Results on seven molecules are retold here after US6127519A, “Calcitonin derivatives” (Tsumura & Co., priority 1990, dated 2000).

Bridge positions count the residues as written; N and C are the ends. Ends that are not written are not given here. Peptide text beside a SMILES is read from it.

For this experiment, the system named is calcium concentration in the serum. The experiment in a line: Test 1: reduction of calcium level in serum after tail vein administration to rats. In kind it is in vivo, rats of the Wistar strain. The settings on record: 1 ml/kg tail vein, female Wistar rats. The protocol: Six-weeks-old female rats of the Wistar strain (each group consisting of 4 rats) were used as the test animal, and the peptides of the present invention obtained in the examples given hereinafter were tested at concentrations adjusted with a 1% aqueous solution of sodium acetate (pH 4,0) to which 0.1% bovine serum albumin (BSA) was added. The solution was adjusted to a concentration of 166 μg/ml 830 ng/ml or 83 ng/ml and administered with the tail vein in an amount of 1 ml/kg. The back of the rat was fixed and blood was collected just before the administration, and at predetermined intervals after the administration, from the neck vein. The amount of blood collected each time was 0.3 ml. The sampled blood was subjected to centrifugal separation at 3500 rpm for 20 minutes to separate serum and the calcium content in the separated serum was measured by TBA-380 (supplied by Toshiba) using a Wako calcium-measuring kit (o-cpc method), and the ratio of reduction of the calcium concentration in the serum was determined.

[1] abbreviates: concentration 83 ng/ml, 0 hour (just before administration).
Setting [2] is: concentration 83 ng/ml, 2 hours.
Where [3] appears, read: concentration 83 ng/ml, 4 hours.
The mark [4] stands for this setting: concentration 83 ng/ml, 6 hours.
Setting [5] is: concentration 830 ng/ml, 0 hour (just before administration).
Where [6] appears, read: concentration 830 ng/ml, 1 hour.
Where [7] appears, read: concentration 830 ng/ml, 2 hours.
Where [8] appears, read: concentration 830 ng/ml, 4 hours.
The mark [9] stands for this setting: concentration 830 ng/ml, 6 hours.

Regarding `CC[C@H](C)[C@H](NC(=O)[C@H](C)NC(=O)[C@@H](NC(=O)[C@H](CCC(N)=O)NC(=O)[C@@H]1CCCN1C(=O)[C@H](Cc1ccc(O)cc1)NC(=O)[C@@H](NC(=O)[C@H](CCC(N)=O)NC(=O)[C@H](CC(C)C)NC(=O)[C@H](CCCCN)NC(=O)[C@H](Cc1c[nH]cn1)NC(=O)[C@H](CC(C)C)NC(=O)[C@H](CCC(=O)O)NC(=O)[C@H](CCC(N)=O)NC(=O)[C@H](CO)NC(=O)[C@H](CC(C)C)NC(=O)[C@H](CCCCN)NC(=O)CNC(=O)[C@H](CC(C)C)NC(=O)[C@H](CC(C)C)NC(=O)[C@@H]1CCCCNC(=O)C[C@H](N)C(=O)N[C@@H](CC(N)=O)C(=O)N[C@@H](CC(C)C)C(=O)N[C@@H](CO)C(=O)N[C@@H]([C@@H](C)O)C(=O)N1)[C@@H](C)O)[C@@H](C)O)C(=O)NCC(=O)N[C@H](C(=O)NCC(=O)N[C@@H](C)C(=O)N1CCC[C@H]1C(N)=O)C(C)C` [Peptide No. 24] (H-DNLSTKLLGKLSQELHKLQTYPQTAIGVGAP-NH2; lactam 1-6), the “Serum calcium level as percent of pre-dose baseline” value (from here on “Serum calcium level as percent”) under setting [1] came out at 100.0%; the “Serum calcium level as percent” value (concentration 83 ng/ml, 1 hour) came to 71.1%; the “Serum calcium level as percent” value under setting [2] amounted to 70.7%; the “Serum calcium level as percent” value under setting [3] came out at 85.6%; the “Serum calcium level as percent” value under setting [4] is 80.1%; the “Serum calcium level as percent” value under setting [5] is 100.0%. Also, the “Serum calcium level as percent” value is 69.1% under setting [6], 61.9% under setting [7], 54.4% under setting [8] and 53.0% under setting [9].

With `CC[C@H](C)[C@H](NC(=O)[C@H](C)NC(=O)[C@@H](NC(=O)[C@H](CCC(N)=O)NC(=O)[C@@H]1CCCN1C(=O)[C@H](Cc1ccc(O)cc1)NC(=O)[C@@H](NC(=O)[C@H](Cc1c[nH]cn1)NC(=O)[C@H](Cc1ccccc1)NC(=O)[C@H](CCCCN)NC(=O)[C@H](CC(N)=O)NC(=O)[C@H](CC(C)C)NC(=O)[C@H](CC(=O)O)NC(=O)[C@H](CCC(N)=O)NC(=O)[C@H](CO)NC(=O)[C@H](CC(C)C)NC(=O)[C@H](CCCCN)NC(=O)CNC(=O)[C@H](CC(C)C)NC(=O)[C@H](CC(C)C)NC(=O)[C@@H]1CCCCNC(=O)C[C@H](N)C(=O)N[C@@H](CC(N)=O)C(=O)N[C@@H](CC(C)C)C(=O)N[C@@H](CO)C(=O)N[C@@H]([C@@H](C)O)C(=O)N1)[C@@H](C)O)[C@@H](C)O)C(=O)NCC(=O)N[C@H](C(=O)NCC(=O)N[C@@H](C)C(=O)N1CCC[C@H]1C(N)=O)C(C)C` [Peptide No. 31] (H-DNLSTKLLGKLSQDLNKFHTYPQTAIGVGAP-NH2; lactam 1-6), the “Serum calcium level as percent” value is 100.0% under setting [1]; 79.1% (concentration 83 ng/ml, 1 hour); 72.7% under setting [2]; 77.5% under setting [3]; 74.3% under setting [4]; 100.0% under setting [5]. Besides, the “Serum calcium level as percent” value runs as follows: under setting [6], 74.3%; under setting [7], 65.6%; under setting [8], 57.3%; under setting [9], 49.6%.

In the case of `CC[C@H](C)[C@H](NC(=O)[C@H](C)NC(=O)[C@@H](NC(=O)[C@H](CCC(N)=O)NC(=O)[C@@H]1CCCN1C(=O)[C@H](Cc1ccc(O)cc1)NC(=O)[C@@H](NC(=O)[C@H](CCC(N)=O)NC(=O)[C@H](CC(C)C)NC(=O)[C@H](CCCCN)NC(=O)[C@H](Cc1c[nH]cn1)NC(=O)[C@H](CC(C)C)NC(=O)[C@H](CCC(=O)O)NC(=O)[C@H](CCC(N)=O)NC(=O)[C@H](CO)NC(=O)[C@H](CC(C)C)NC(=O)[C@H](CCCCN)NC(=O)CNC(=O)[C@H](CC(C)C)NC(=O)[C@H](CC(C)C)NC(=O)[C@@H]1CC(=O)NCCCC[C@H](N)C(=O)N[C@@H](CC(N)=O)C(=O)N[C@@H](CC(C)C)C(=O)N[C@@H](CO)C(=O)N[C@@H]([C@@H](C)O)C(=O)N1)[C@@H](C)O)[C@@H](C)O)C(=O)NCC(=O)N[C@H](C(=O)NCC(=O)N[C@@H](C)C(=O)N1CCC[C@H]1C(N)=O)C(C)C` [Peptide No. 28] (H-KNLSTDLLGKLSQELHKLQTYPQTAIGVGAP-NH2; lactam 1-6), the “Serum calcium level as percent” value runs as follows: under setting [1], 100.0%; (concentration 83 ng/ml, 1 hour) 83.7%; under setting [2], 87.7%; under setting [3], 82.6%; under setting [4], 80.8%; under setting [5], 100.0%. Besides, the “Serum calcium level as percent” value was 73.5% under setting [6], 87.2% under setting [7], 83.8% under setting [8] and 81.6% under setting [9].

In the case of `CC[C@H](C)[C@H](NC(=O)[C@H](C)NC(=O)[C@@H](NC(=O)[C@H](CCC(N)=O)NC(=O)[C@@H]1CCCN1C(=O)[C@H](Cc1ccc(O)cc1)NC(=O)[C@@H](NC(=O)[C@H](CCC(N)=O)NC(=O)CNC(=O)[C@H](CCCCN)NC(=O)[C@H](Cc1c[nH]cn1)NC(=O)[C@H](CC(C)C)NC(=O)[C@H](CCC(=O)O)NC(=O)[C@H](CCC(N)=O)NC(=O)[C@H](CO)NC(=O)[C@H](CC(C)C)NC(=O)[C@H](CCCCN)NC(=O)CNC(=O)[C@H](CC(C)C)NC(=O)[C@H](CCSC)NC(=O)[C@@H]1CSSC[C@H](N)C(=O)NCC(=O)N[C@@H](CC(N)=O)C(=O)N[C@@H](CC(C)C)C(=O)N[C@@H](CO)C(=O)N[C@@H]([C@@H](C)O)C(=O)N1)[C@@H](C)O)[C@@H](C)O)C(=O)NCC(=O)N[C@@H](CO)C(=O)NCC(=O)N[C@H](C(=O)N1CCC[C@H]1C(N)=O)[C@@H](C)O` [Peptide No. 8] (H-CGNLSTCMLGKLSQELHKGQTYPQTAIGSGTP-NH2; disulfide 1-7), the “Serum calcium level as percent” value turned out to be 100.0% under setting [5]; 76.6% under setting [6]; 78.2% under setting [7]; 99.7% under setting [8]; 96.3% under setting [9].

Take “AGNLSTAMLGKLSQELHKQTYPQTAIGVGAP-NH2 [Peptide No. 15]”: the “Serum calcium level as percent” value (concentration 166 ng/ml, 0 hour (just before administration)) is given as 100.0%; the “Serum calcium level as percent” value (concentration 166 ng/ml, 1 hour) amounted to 75.5%; the “Serum calcium level as percent” value (concentration 166 ng/ml, 2 hours) stood at 67.5%; the “Serum calcium level as percent” value (concentration 166 ng/ml, 4 hours) is reported as 80.6%; the “Serum calcium level as percent” value (concentration 166 ng/ml, 6 hours) was found to be 75.3%.

On to `CC[C@H](C)[C@H](NC(=O)[C@H](C)NC(=O)[C@@H](NC(=O)[C@H](CCC(N)=O)NC(=O)[C@@H]1CCCN1C(=O)[C@H](Cc1ccc(O)cc1)NC(=O)[C@@H](NC(=O)[C@H](CCC(N)=O)NC(=O)[C@H](CC(C)C)NC(=O)[C@H](CCCCN)NC(=O)[C@H](Cc1c[nH]cn1)NC(=O)[C@H](CC(C)C)NC(=O)[C@H](CCC(=O)O)NC(=O)[C@H](CCC(N)=O)NC(=O)[C@H](CO)NC(=O)[C@H](CC(C)C)NC(=O)[C@H](CCCCN)NC(=O)CNC(=O)[C@H](CC(C)C)NC(=O)[C@H](CCSC)NC(=O)[C@@H]1CC(=O)NCCCC[C@H](N)C(=O)N[C@@H](CC(N)=O)C(=O)N[C@@H](CC(C)C)C(=O)N[C@@H](CO)C(=O)N[C@@H]([C@@H](C)O)C(=O)N1)[C@@H](C)O)[C@@H](C)O)C(=O)NCC(=O)N[C@H](C(=O)NCC(=O)N[C@@H](C)C(=O)N1CCC[C@H]1C(N)=O)C(C)C` [Peptide No. 27] (H-KNLSTDMLGKLSQELHKLQTYPQTAIGVGAP-NH2; lactam 1-6), for which the “Serum calcium level as percent” value under setting [1] stood at 100.0%; the “Serum calcium level as percent” value (concentration 83 ng/ml, 1 hour) was found to be 93.5%; the “Serum calcium level as percent” value under setting [2] came out at 94.3%; the “Serum calcium level as percent” value under setting [3] came out at 86.4%; the “Serum calcium level as percent” value under setting [4] stood at 82.7%; the “Serum calcium level as percent” value under setting [5] was found to be 100.0%. Further, the “Serum calcium level as percent” value under setting [6] is on record as 79.5%, the “Serum calcium level as percent” value under setting [7] was found to be 94.1%, the “Serum calcium level as percent” value under setting [8] is listed as 87.0% and the “Serum calcium level as percent” value under setting [9] worked out at 82.9%.

With “Peptide No. 20: novel linear calcitonin-derivative peptide, Ala at 1 and 7, Leu8, SEQ ID NO:20 (AGNLTSALLGKLSQELHKLQTYPQTAIGVGAP; ends and bridges not checked)”, the “Serum calcium level as percent” value is, setting by setting: under setting [1], 100.0%; (concentration 83 ng/ml, 1 hour) 86.6%; under setting [2], 88.4%; under setting [3], 83.9%; under setting [4], 87.5%; under setting [5], 100.0%. Also, the “Serum calcium level as percent” value is, setting by setting: under setting [6], 80.6%; under setting [7], 87.8%; under setting [8], 82.9%; under setting [9], 84.5%.
